Results on 26 molecules are retold here after PMC9865139 (Viruses, 2022).

For one data set, the system named is Vero cell culture. To be noted: African green monkey.
The next data set deals with vaccinia virus. The note with it: cited from earlier work.
In data set [1] the test system is mousepox virus—ectromelia (strain K-1), ECTV.
The subject of data set [2] is cowpox virus (strain Grishak), CPXV.
For data set [3] the following is noted: in vivo; cited from earlier work.
Data set [4] has as its system cowpox virus (strain Grishak), CPXV. Briefly: microbe, parasite or virus in culture. To be noted: Vero, read-out: IC50 CPXV.
The test system of another data set is VARV. The note with it: monkey, in vivo; cited from earlier work.
The conditions of data set [5]: in vivo; cited from earlier work. This is another data set of the same source.
The subject of data set [6] is mousepox virus—ectromelia (strain K-1), ECTV. In words: microbe, parasite or virus in culture. The note with it: Vero, read-out: IC50 ECTV.
For data set [7], the system named is vaccinia virus (strain Copenhagen). Briefly: microbe, parasite or virus in culture. It is filed as cell-based.
Another data set deals with orthopoxviruses. The note with it: cited from earlier work.
For another data set, the system named is cowpox virus. The note with it: cited from earlier work.
For another data set, the system named is ectromelia virus. To be noted: mouse, in vivo; cited from earlier work.
The mark [8] stands for this setting: Orthopoxvirus vaccinia, Vero, read-out: IC50, 50% virus-inhibiting concentration.
Setting [9] is: Orthopoxvirus vaccinia, Vero, read-out: pIC50 (converted).

Like-named read-outs stand apart in the source and are kept apart here.

For the molecule `O=C(NC12CC3CC(CC(C3)C1)C2)c1ccccc1[N+](=O)[O-]` [16a, N-(adamantan-1-yl)-2-nitrobenzamide], the “TC50, 50% cytotoxic concentration” value with Vero cell culture is above 100000 nM.
As to `Nc1ccn(C[C@@H](CO)OCP(=O)(O)O)c(=O)n1` [cidofovir, Cidofovir, reference compound], in the data set with vaccinia virus, the “selectivity index (SI), vaccinia virus” value is 12. Further, the “SI ECTV (TC50/IC50)” value in [1] worked out at 31. Also, in [2], the “SI CPXV (TC50/IC50)” value is given as 9. Moreover, the oral bioavailability result in data set [3] is on record as “Low”. Besides, the IC50 came out at 23500 ± 2230 nM in [4], 6460 ± 3100 nM in data set [6] and 7630 ± 3150 nM in data set [7] (setting [8]). Moreover, the “TC50, 50% cytotoxic concentration” value in the data set with Vero cell culture turned out to be 201330 ± 60100 nM. In the data set with VARV, the “efficacy when used after the onset of smallpox lesions” value is “ineffective”. In addition, the nephrotoxicity entry in data set [5] was “significant”. Further, in data set [7], the “SI, selectivity index (TC50/IC50)” value worked out at 26.
On to `O=C(NC12CC3CC(CC(C3)C1)C2)c1ccccc1` [12a], for which the “TC50, 50% cytotoxic concentration” value in the data set on Vero cell culture amounted to 105670 ± 19140 nM. Also, the “SI, selectivity index (TC50/IC50)” value in data set [7] was 23. For the same molecule, the IC50 was 4700 ± 370 nM in data set [7] (setting [8]) and 4680 nM in data set [7] (setting [9]).
Turning to `O=C(NC1C2CC3CC(C2)CC1C3)c1ccccc1[N+](=O)[O-]` (stereo not shown) [16b, N-(adamantan-2-yl)-2-nitrobenzamide], the “TC50, 50% cytotoxic concentration” value with Vero cell culture was above 100000 nM.
On to `CN(C)CCOCC(=O)NC12CC3CC(CC(C3)C1)C2` [compound 4, tromantadine], for which the “vaccinia virus inhibitory effects” value in the data set on vaccinia virus is “pronounced”.
`O=C(N/N=C1/C(=O)Nc2ccccc21)NC1C2CC3CC(C2)CC1C3` (stereo not shown) [compound 1]: the “reduction in vaccinia virus reproduction” value in the data set on vaccinia virus is 42%.
Consider `O=C(NC1C2CC3CC(C2)CC1C3)c1ccccc1` (stereo not shown) [12b], for which the “TC50, 50% cytotoxic concentration” value in the data set with Vero cell culture amounted to 101330 ± 6110 nM. Moreover, the “SI, selectivity index (TC50/IC50)” value in data set [7] is recorded as 15. Further, the IC50 in data set [7] (setting [8]) was 6730 ± 170 nM; in [7] (setting [9]) it was 6760 nM.
Taken in the same sequence, the figures for `O=C(NC1C2CC3CC(C2)CC1C3)c1cccc([N+](=O)[O-])c1` (stereo not shown) [17b, N-(adamantan-2-yl)-3-nitrobenzamide] were 9500 ± 870 nM, 10, 990 ± 190 nM and 1000 nM.
Consider `O=C(NN1C(=O)C2C3C=CC(C4CC34)C2C1=O)c1ccc(F)cc1` (stereo not shown) [compound 19], for which the IC50 with vaccinia virus (read-out: IC50 against vaccinia virus) is below 50 nM.
Regarding `CC1(C)C2CCC1(C)C(NC(=O)c1ccc([N+](=O)[O-])cc1)C2` (stereo not shown) [compound 11], in the data set on orthopoxviruses, the selectivity index was 31,500.
Take `O=C(NC12CC3CC(CC(C3)C1)C2)c1ccc(C(F)(F)F)cc1` [compound 10]: in the data set on orthopoxviruses, the selectivity index was 2325.
Take `O=C(NC1C2CC3CC(C2)CC1C3)c1ccc([N+](=O)[O-])cc1` (stereo not shown) [18b, N-(adamantan-2-yl)-4-nitrobenzamide]: the “SI ECTV (TC50/IC50)” value in data set [1] is 1093. Besides, the “SI CPXV (TC50/IC50)” value in data set [2] is reported as 447. Moreover, the IC50 in [4] was 1100 ± 220 nM; in data set [6], 450 ± 220 nM; in data set [7] (setting [8]) it was 40 ± 10 nM; in data set [7] (setting [9]) it was 39.8 nM. Moreover, the “TC50, 50% cytotoxic concentration” value in the data set with Vero cell culture came out at 492000 ± 31000 nM. Moreover, the “SI, selectivity index (TC50/IC50)” value in [7] is on record as 12,300.
As for `O=C(NC12CC3CC(CC(C3)C1)C2)c1cccc([N+](=O)[O-])c1` [17a, N-(adamantan-1-yl)-3-nitrobenzamide], the “TC50, 50% cytotoxic concentration” value in the data set with Vero cell culture worked out at 7750 ± 750 nM. Moreover, in data set [7], the “SI, selectivity index (TC50/IC50)” value turned out to be 8. For the same molecule, the IC50 was 950 ± 30 nM in [7] (setting [8]) and 955 nM in data set [7] (setting [9]).
In the case of `O=C(NC12CC3CC(CC(C3)C1)C2)c1ccc(F)cc1` [13a], in data set [1], the “SI ECTV (TC50/IC50)” value is 250. In addition, the “SI CPXV (TC50/IC50)” value in data set [2] was 125. The IC50 was 2780 ± 420 nM in data set [4], 1390 ± 290 nM in data set [6], 410 ± 100 nM in data set [7] (setting [8]) and 407 nM in [7] (setting [9]). For the same molecule, the “TC50, 50% cytotoxic concentration” value with Vero cell culture was 347310 ± 38980 nM. Besides, the “SI, selectivity index (TC50/IC50)” value in data set [7] amounted to 847.
Regarding `O=C(NC12CC3CC(CC(C3)C1)C2)c1ccc(Br)cc1` [15a], in data set [1], the “SI ECTV (TC50/IC50)” value is 2767. Besides, in data set [2], the “SI CPXV (TC50/IC50)” value was 1038. The IC50 is 400 ± 240 nM in data set [4], 150 ± 80 nM in data set [6], 130 ± 80 nM in data set [7] (setting [8]) and 129 nM in data set [7] (setting [9]). For the same molecule, in the data set on Vero cell culture, the “TC50, 50% cytotoxic concentration” value turned out to be 415000 ± 95000 nM. For the same molecule, the “SI, selectivity index (TC50/IC50)” value in data set [7] is given as 3192.
`CC1(C)[C@H]2CC=C(CNC(=O)C34CC5CC(CC(C5)C3)C4)[C@@H]1C2` [compound 7]: the “selectivity index (SI), vaccinia virus” value in the data set with vaccinia virus is 1123. The “selectivity index (SI), cowpox virus” value in the data set with cowpox virus is on record as 406.
Regarding `O=C(NC1C2CC3CC(C2)CC1C3)c1ccc(Br)cc1` (stereo not shown) [15b], the results for the IC50 (with vaccinia virus (read-out: IC50); in [7] (setting [8]); in [7] (setting [9])) were 3060 nM, 220 ± 70 nM and 219 nM, respectively. Moreover, the “SI, selectivity index (TC50/IC50)” value in data set [7] turned out to be 589.
For the molecule `CC(=O)N(OCCN(C)C)C12CC3CC(CC(C3)C1)C2` [compound 3], the “vaccinia virus inhibitory effects” value in the data set on vaccinia virus is “pronounced”.
As for `O=C(NC12CC3CC(CC(C3)C1)C2)c1ccc([N+](=O)[O-])cc1` [18a], in [1], the “SI ECTV (TC50/IC50)” value stood at 6071. Moreover, the “SI CPXV (TC50/IC50)” value in [2] is 3036. The IC50 was 180 ± 20 nM in data set [4], 90 ± 17 nM in [6], 30 ± 10 nM in data set [7] (setting [8]) and 30.2 nM in data set [7] (setting [9]). Further, the “TC50, 50% cytotoxic concentration” value in the data set with Vero cell culture worked out at 546430 ± 23980 nM. Moreover, the “SI, selectivity index (TC50/IC50)” value in [7] is 18,214.
As to `O=C(CNC1CCCCC1)NC12CC3CC(CC(C3)C1)C2` [compound 2], in the data set with vaccinia virus, the “vaccinia virus inhibitory effects” value is reported as “pronounced”.
With `O=C(NC1C2CC3CC(C2)CC1C3)c1ccc(F)cc1` (stereo not shown) [13b], in the data set on Vero cell culture, the “TC50, 50% cytotoxic concentration” value is 104000 ± 8720 nM. In [7], the “SI, selectivity index (TC50/IC50)” value is 49. For the same molecule, the IC50 in data set [7] (setting [8]) was 2140 ± 130 nM; in [7] (setting [9]), 2140 nM.
For the molecule `O=C(NC1C2CC3CC(C2)CC1C3)c1ccc(Cl)cc1` (stereo not shown) [14b], the “TC50, 50% cytotoxic concentration” value in the data set with Vero cell culture worked out at 104000 ± 8720 nM. Moreover, the “SI, selectivity index (TC50/IC50)” value in data set [7] amounted to 578. Further, the IC50 in data set [7] (setting [8]) is 180 ± 40 nM; in data set [7] (setting [9]), 182 nM.
`Brc1ccc(NC2C3CC4CC(C3)CC2C4)cc1` (stereo not shown) [bromantane, reference compound]: the “SI, selectivity index (TC50/IC50)” value in data set [7] came out at 2. The IC50 in [7] (setting [8]) was 38800 nM; in data set [7] (setting [9]), 87100 nM; in data set [7] (read-out: IC50, 50% virus-inhibiting concentration), 38900 ± 490 nM.
In the case of `O=C(NC12CC3CC(CC(C3)C1)C2)c1ccc(Cl)cc1` [14a], the “SI ECTV (TC50/IC50)” value in [1] is recorded as 935. In data set [2], the “SI CPXV (TC50/IC50)” value was 653. Also, the IC50 was 530 ± 370 nM in [4], 370 ± 330 nM in [6], 130 ± 80 nM in [7] (setting [8]) and 135 nM in [7] (setting [9]). Moreover, the “TC50, 50% cytotoxic concentration” value in the data set with Vero cell culture came out at 346000 ± 66000 nM. In data set [7], the “SI, selectivity index (TC50/IC50)” value is listed as 2662.
For the molecule `O=C1C2C3C=CC(C4CC34)C2C(=O)N1NC(=O)C12CC3CC(CC(C3)C1)C2` (stereo not shown) [compound 6], the “effective concentration against vaccinia virus” value with vaccinia virus is on record as “below 0.05 μM”. Further, the “effective concentration against cowpox virus” value with cowpox virus is “below 0.05 μM”.
Regarding `CCCCCCCCCCCCCCCCOCCCOP(=O)(O)CO[C@H](CO)Cn1ccc(N)nc1=O` [CMX001, Brincidofovir], the “protection against lethal infection with ectromelia virus” value in the data set on ectromelia virus is on record as “does not provide a sufficient level of protection”.
